Experimental data as given in patent US10851102B2, “Imidazole and triazole containing bicyclic compounds as JAK inhibitors” (THERAVANCE BIOPHARMA R&D IP, LLC, priority 2019, dated 2020).

Assays:
JAK1 = JAK1 (Homo sapiens (Human), UniProt P23458); test: Biochemical JAK and Tyk2 kinase assays (LanthaScreen): JAK1; conditions: 1 h pre-incubation, ATP at Km; pIC50 converted to pKi by Cheng-Prusoff
Method in brief: (§1)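 GST-JAK + GFP-STAT1 peptide, HEPES pH 7.5/MgCl2/EGTA/Brij-35 buffer; cpd preincubation 1 h RT; ATP start, 1 h RT; stop with 10 mM EDTA + 2 nM Tb-anti-pSTAT1; TR-FRET 520/495. 4-parameter IC50 → pKi (Cheng-Prusoff).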

JAK2 = JAK2 (Homo sapiens (Human), UniProt O60674); test: Biochemical JAK and Tyk2 kinase assays (LanthaScreen): JAK2; conditions: 1 h pre-incubation, ATP at Km, pIC50 converted to pKi by Cheng-Prusoff; for Ki: read-out: JAK 2 (pKi) (converted)
Sequence of JAK2 (O60674 whole entry): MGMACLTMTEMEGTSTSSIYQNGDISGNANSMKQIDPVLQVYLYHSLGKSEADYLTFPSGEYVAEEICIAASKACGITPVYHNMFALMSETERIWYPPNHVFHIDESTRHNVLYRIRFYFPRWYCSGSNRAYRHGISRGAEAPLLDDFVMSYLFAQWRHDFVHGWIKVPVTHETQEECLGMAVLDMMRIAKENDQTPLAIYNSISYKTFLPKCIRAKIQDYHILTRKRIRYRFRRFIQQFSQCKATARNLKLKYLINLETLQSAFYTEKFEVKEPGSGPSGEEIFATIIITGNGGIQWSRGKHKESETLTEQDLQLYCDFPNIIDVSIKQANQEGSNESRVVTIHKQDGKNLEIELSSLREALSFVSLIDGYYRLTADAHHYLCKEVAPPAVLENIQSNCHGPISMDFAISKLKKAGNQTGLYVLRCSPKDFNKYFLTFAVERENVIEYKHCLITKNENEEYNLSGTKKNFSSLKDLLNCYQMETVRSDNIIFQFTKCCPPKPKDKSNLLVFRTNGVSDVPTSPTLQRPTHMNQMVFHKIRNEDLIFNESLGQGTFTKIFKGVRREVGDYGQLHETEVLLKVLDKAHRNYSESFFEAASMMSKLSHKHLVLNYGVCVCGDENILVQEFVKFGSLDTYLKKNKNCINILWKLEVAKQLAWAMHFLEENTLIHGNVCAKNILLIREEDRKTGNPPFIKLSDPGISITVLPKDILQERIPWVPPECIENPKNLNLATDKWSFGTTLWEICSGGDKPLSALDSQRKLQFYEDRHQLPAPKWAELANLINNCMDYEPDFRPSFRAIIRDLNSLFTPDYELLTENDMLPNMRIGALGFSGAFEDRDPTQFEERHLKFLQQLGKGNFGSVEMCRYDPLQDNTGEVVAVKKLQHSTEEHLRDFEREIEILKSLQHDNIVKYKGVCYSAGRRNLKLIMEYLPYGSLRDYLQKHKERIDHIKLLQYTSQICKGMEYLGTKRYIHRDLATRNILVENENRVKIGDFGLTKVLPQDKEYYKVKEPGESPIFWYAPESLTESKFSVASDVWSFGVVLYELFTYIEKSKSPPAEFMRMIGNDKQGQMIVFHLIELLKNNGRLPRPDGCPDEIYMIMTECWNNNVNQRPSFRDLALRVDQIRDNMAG
Procedure: (§2) Assay 1: Biochemical JAK and Tyk2 Kinase Assays
(§3) A panel of four LanthaScreen JAK biochemical assays (JAK1, 2, 3 and Tyk2) were carried in a common kinase reaction buffer (50 mM HEPES, pH 7.5, 0.01% Brij-35, 10 mM MgCl2, and 1 mM EGTA). Recombinant GST-tagged JAK enzymes and a GFP-tagged STAT1 peptide substrate were obtained from Life Technologies.
(§4) Serially or discretely diluted compounds were pre-incubated with each of the four JAK enzymes and the substrate in white 384-well microplates (Corning) at ambient temperature for 1 h. ATP was subsequently added to initiate the kinase reactions in 10 μL total volume, with 1% DMSO. […] Kinase reactions were allowed to proceed for 1 hour at ambient temperature before a 10 μL preparation of EDTA (10 mM final concentration) and Tb-anti-pSTAT1 (pTyr701) antibody (Life Technologies, 2 nM final concentration) in TR-FRET dilution buffer (Life Technologies) was added. The plates were allowed to incubate at ambient temperature for 1 h before being read on the EnVision reader (Perkin Elmer). Emission ratio signals (520 nm/495 nm) were recorded and utilized to calculate the percent inhibition values based on DMSO and background controls.
(§5) For dose-response analysis, percent inhibition data were plotted vs. compound concentrations, and IC50 values were determined from a 4-parameter robust fit model with the Prism software (GraphPad Software). Results were expressed as pIC50 (negative logarithm of IC50) and subsequently converted to pKi (negative logarithm of dissociation constant, Ki) using the Cheng-Prusoff equation.

JAK3 = JAK3 (Homo sapiens (Human), UniProt P52333); test: Biochemical JAK and Tyk2 kinase assays (LanthaScreen): JAK3; conditions: for Ki / JAK 3 (pKi): 1 h pre-incubation, ATP at Km, pIC50 converted to pKi by Cheng-Prusoff; for Ki: read-out: JAK 3 (pKi) (converted); for JAK3 (pKi)-JAK1 (pKi): difference of pKi values, selectivity JAK3 over JAK1
Sequence of JAK3 (P52333 whole entry): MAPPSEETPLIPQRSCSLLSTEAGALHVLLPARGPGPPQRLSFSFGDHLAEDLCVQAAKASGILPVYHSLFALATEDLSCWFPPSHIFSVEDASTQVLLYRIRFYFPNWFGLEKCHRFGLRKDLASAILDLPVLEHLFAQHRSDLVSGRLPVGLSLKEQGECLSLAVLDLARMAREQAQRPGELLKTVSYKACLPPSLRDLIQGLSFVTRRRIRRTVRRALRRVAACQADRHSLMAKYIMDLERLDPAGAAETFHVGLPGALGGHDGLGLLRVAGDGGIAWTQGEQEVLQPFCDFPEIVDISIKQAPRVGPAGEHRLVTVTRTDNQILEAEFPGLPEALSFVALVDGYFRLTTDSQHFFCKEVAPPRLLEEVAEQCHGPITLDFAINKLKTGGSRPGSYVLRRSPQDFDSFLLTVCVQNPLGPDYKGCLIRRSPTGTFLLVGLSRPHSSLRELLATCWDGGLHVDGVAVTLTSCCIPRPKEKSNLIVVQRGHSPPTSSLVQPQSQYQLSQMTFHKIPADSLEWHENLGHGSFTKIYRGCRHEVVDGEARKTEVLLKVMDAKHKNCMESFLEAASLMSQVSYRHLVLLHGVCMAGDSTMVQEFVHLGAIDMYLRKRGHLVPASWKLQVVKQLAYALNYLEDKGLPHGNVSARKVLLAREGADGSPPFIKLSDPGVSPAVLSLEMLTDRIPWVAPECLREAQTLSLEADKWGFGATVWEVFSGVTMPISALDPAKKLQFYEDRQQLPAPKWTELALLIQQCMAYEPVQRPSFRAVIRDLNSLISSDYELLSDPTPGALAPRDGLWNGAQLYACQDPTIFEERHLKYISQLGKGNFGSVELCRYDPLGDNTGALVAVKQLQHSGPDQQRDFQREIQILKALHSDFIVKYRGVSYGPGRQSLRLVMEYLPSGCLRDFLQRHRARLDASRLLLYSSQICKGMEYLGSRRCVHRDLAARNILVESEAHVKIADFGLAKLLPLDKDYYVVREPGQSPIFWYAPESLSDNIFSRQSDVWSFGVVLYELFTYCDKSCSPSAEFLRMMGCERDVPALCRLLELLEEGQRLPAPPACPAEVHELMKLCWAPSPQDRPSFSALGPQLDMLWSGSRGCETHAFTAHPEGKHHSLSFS
Method in brief: as §1

Tyk2 = Tyk2 (Homo sapiens (Human), UniProt P29597); test: Biochemical JAK and Tyk2 kinase assays (LanthaScreen): Tyk2; conditions: 1 h pre-incubation, ATP at Km; pIC50 converted to pKi by Cheng-Prusoff
Sequence of Tyk2 (P29597 whole entry): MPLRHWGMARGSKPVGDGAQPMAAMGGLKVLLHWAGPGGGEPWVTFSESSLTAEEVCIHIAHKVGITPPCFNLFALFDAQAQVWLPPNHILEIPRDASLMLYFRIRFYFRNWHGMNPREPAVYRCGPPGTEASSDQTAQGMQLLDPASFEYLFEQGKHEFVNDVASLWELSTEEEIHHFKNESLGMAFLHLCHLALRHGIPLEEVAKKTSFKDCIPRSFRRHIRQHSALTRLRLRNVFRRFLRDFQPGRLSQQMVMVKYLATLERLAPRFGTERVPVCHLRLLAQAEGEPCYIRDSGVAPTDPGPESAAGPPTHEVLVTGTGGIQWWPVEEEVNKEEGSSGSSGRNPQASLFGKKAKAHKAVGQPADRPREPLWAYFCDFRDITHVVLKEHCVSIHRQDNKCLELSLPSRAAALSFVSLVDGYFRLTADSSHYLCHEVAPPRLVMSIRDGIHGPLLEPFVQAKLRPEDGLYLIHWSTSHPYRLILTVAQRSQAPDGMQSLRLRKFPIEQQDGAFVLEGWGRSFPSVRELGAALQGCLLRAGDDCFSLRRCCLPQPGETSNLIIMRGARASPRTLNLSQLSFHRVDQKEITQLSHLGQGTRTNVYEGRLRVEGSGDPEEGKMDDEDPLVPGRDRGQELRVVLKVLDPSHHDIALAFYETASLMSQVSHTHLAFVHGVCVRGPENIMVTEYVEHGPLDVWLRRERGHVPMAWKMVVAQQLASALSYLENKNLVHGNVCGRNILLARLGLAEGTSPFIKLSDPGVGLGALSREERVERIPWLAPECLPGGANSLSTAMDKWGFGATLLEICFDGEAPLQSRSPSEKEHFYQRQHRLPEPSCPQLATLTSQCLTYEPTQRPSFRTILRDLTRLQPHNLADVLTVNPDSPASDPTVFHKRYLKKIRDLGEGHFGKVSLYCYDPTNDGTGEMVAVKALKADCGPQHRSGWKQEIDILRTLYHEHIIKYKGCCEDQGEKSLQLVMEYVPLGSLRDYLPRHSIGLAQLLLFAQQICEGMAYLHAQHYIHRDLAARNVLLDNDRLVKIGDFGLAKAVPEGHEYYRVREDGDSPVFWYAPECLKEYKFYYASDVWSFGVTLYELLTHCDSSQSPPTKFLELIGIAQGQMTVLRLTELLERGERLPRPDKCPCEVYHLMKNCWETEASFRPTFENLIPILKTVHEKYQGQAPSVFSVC
Procedure: as §2, §3, §4, §5

[1] = system: IL-2 stimulated pSTAT5 in Tall-1 T cells (JAK3); test: Cellular JAK3 potency assay: inhibition of IL-2 stimulated pSTAT5 in Tall-1 T cells; assay type: cell-based; conditions: IL-2 300 ng/ml, pSTAT5 AlphaLisa, Tall-1 human T cell line; read-out: Tall-1 (pIC50) (converted)
Method in brief: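 Human Tall-1 T cells (45,000/well) preincubated with compound 1 h at 37 °C, then stimulated with IL-2 (final 300 ng/ml) for 30 min. Lysates read for pSTAT5 (Tyr694/699) by AlphaLISA luminescence. IC50 from signal-versus-concentration curves, reported as pIC50 (mean±SD).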

Caco-2 cell monolayers = test: Caco-2 permeation assay; assay type: in vitro ADME, human; conditions: for Caco Kp 10^−6 cm/sec: 5 μM, A to B, + Verapamil 25 μM, 120 minutes
Description: Assay 5: Caco-2 Permeation Assay

[2] = Colon and plasma mouse pharmacokinetics; assay type: in vivo; conditions: ratio of colon AUC to plasma AUC, male Balb/c mice, 10 mg/kg PO; for Kp: mouse
Procedure: Assay 6: Colon and Plasma Mouse Pharmacokinetics
6 male Balb/c mice were administered 10 mg/kg of compound in 1% HPMC+0.1% Tween-80 by PO administration. At 0.5, 2 and 6 hours after dose administration, animals were anesthetized, and terminal blood samples were collected by cardiac puncture, followed by collection of colon contents and colon tissue.
Blood samples were collected into K2EDTA and stored on wet ice until processed to plasma by centrifugation (12,000 rpm at 4° C.). Plasma samples were transferred to cluster tubes and placed on dry ice prior to freezer storage. The colon contents from each animal were collected at each terminal blood collection time point. The colon tissues were flushed with saline and patted dry. The colon and colon content tissues were homogenized using sterile water containing 0.1% formic acid 9:1 (water:tissue, v/w). The homogenized tissues and colon contents were transferred to cluster tubes and placed on dry ice prior to freezer storage. All samples were analyzed using LC/MS/MS against analytical standards.
The composite pharmacokinetic parameters of the compounds were determined by non-compartmental analysis using Phoenix WinNonlin Version 6 (Certara, St. Louis, Mo.) and using mean values from 2 animals/time point. For plasma concentrations below the quantification limit (BQL), the lowest concentration measurable or the BLOQ (below limit of quantification) was used.
A colon to plasma ratio was determined as the ratio of the colon AUC to the plasma AUC.

[3] = system: IL-2 stimulated pSTAT5 in CD4+ T cells isolated from murine splenocytes (JAK3); test: Inhibition of IL-2 stimulated pSTAT5 in CD4+ T cells isolated from murine splenocytes; assay type: cell-based; conditions: Mus musculus, IL-2 7 ng/ml, read-out: pIC50, inhibition of IL-2 stimulated pSTAT5 (converted)
Procedure: Assay 3: Inhibition of IL-2 Stimulated pSTAT5 in CD4+ T Cells Isolated from Murine Splenocytes
The potency of test compounds for inhibition of interleukin-2 (IL-2) stimulated STATS phosphorylation was measured in the CD4+ T cells isolated from murine splenocytes using AlphaLisa. Because IL-2 signals through JAK3, this assay provides a measure of JAK3 cellular potency in mouse.
Phosphorylated STATS was measured via the AlphaLISA SureFire Ultra pSTAT5 (Tyr694/699) kit (PerkinElmer).
CD4+ T cells were isolated from murine splenocytes via negative selection on a magnetic column (Miltnyi Biotec) and re-suspended in assay media (phenol red-free DMEM (Life Technologies) supplemented with 10% FBS (ATCC)). Cells were seeded at 50,000 cells/well in assay media (2 μL/well). Compounds were serially diluted in DMSO and diluted to 2× final concentration in assay media. Compound was added (4 μl/well) and the cells incubated at 37° C., 5% CO2 for 1 hour, followed by the addition of IL-2 (R&D Systems; final concentration 7 ng/ml) in pre-warmed assay media (2 μL) for 30 minutes. After cytokine stimulation, cells were lysed with 2 μl of 5× AlphaLisa Lysis Buffer (PerkinElmer). The lysate was shaken at 900 rpm for 10 minutes at room temperature (RT). Phosphorylated STATS was measured via the pSTAT5 AlphaLisa kit (PerkinElmer). Freshly prepared acceptor bead mixture was dispensed onto lysate (5 ul) under green filtered <100 lux light. Plates were shaken at 900 rpm for 2 mins, briefly spun down, and incubated for 2 hrs at RT in the dark. Donor beads were dispensed (5 μl) under green filtered <100 lux light. Plates were shaken at 900 rpm for 2 mins, briefly spun down, and incubated overnight at RT in the dark. Luminescence was measured with excitation at 689 nm and emission at 570 nm using an EnVision plate reader (PerkinElmer) under green filtered <100 lux light.
To determine the inhibitory potency of test compounds in response to IL-2, the average emission intensity of beads bound to pSTATS was measured in primary CD4+ T cells isolated from murine splenocytes. IC50 values were determined from analysis of the inhibition curves of signal intensity vs compound concentration. Data are expressed as pIC50 (negative decadic logarithm IC50) values (mean±standard deviation).

Sequence of JAK1 (P23458 whole entry): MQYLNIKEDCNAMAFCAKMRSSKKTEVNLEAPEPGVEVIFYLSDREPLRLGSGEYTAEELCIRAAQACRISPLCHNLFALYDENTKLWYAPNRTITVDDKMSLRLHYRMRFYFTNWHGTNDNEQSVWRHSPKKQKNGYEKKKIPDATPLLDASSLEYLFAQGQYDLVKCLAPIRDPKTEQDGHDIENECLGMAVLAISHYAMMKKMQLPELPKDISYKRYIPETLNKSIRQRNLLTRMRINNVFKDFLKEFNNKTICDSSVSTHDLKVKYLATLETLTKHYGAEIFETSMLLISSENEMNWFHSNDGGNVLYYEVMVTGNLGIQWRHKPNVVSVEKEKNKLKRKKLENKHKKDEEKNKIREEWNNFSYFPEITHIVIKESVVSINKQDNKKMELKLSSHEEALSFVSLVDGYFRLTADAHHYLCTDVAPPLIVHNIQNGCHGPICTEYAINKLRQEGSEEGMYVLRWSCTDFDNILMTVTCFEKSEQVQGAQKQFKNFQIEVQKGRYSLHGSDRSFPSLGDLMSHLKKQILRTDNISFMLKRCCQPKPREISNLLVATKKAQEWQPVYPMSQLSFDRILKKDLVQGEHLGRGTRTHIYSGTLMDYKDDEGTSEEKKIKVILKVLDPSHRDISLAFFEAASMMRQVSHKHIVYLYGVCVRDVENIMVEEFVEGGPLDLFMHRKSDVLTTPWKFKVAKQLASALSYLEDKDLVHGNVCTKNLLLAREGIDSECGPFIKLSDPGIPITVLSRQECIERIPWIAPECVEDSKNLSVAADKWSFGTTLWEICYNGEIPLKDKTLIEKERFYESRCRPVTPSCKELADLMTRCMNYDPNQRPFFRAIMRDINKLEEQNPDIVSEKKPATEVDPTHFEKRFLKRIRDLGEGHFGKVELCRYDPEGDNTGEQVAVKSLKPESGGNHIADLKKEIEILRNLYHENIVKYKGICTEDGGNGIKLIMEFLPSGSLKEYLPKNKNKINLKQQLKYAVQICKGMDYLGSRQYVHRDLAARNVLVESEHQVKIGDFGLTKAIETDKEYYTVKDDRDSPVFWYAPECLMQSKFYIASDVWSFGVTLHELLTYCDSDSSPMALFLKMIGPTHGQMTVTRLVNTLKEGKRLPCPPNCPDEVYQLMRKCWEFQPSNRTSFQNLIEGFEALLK

Row | Structure (SMILES) | Ki (JAK1) | Ki (JAK2) | Ki (JAK3) | JAK3 (pKi)-JAK1 (pKi) (JAK3) | Tyk 2 (pKi) (Tyk2) | IC50 [1] | Caco Kp 10^−6 cm/sec (Caco-2 cell monolayers) | Kp [2] | JAK 1 (pKi) (JAK1) | JAK 2 (pKi) (JAK2) | JAK 3 (pKi) (JAK3) | IC50 [3] | Kp value (Caco-2 cell monolayers; A to B + Verapamil, unit not given, thresholds in same block in 10^−6 cm/sec) | colon to plasma ratio [2]
1 | C=CC(=O)N1CCC[C@H](Oc2cc(-c3cc(F)c(O)cc3CC)cn3cncc23)C1 [Example 16] | 10 to 100 nM | 10 to 100 nM | 0.1 to 1 nM | B (B represents a value of 2.3 to 3) | E (E represents a pKi value of 7 or below (Ki of 100 nM or above)) | 31.6 to 200 nM | C (C represents a value between 10×10^−6 and 25×10^−6 cm/sec) | > 200 |  |  |  |  |  | 
2 | C=CC(=O)N1CC(C(C)(C)Oc2cc(-c3ccc(O)cc3)cn3cncc23)C1 [Example 28] |  |  |  | A (A represents a value of 3 or above) | E (E represents a pKi value of 7 or below (Ki of 100 nM or above)) | 31.6 to 200 nM | A (A represents a value below 5×10^−6 cm/sec) |  | E (E represents a pKi value of 7 or below (Ki of 100 nM or above)) | E (E represents a pKi value of 7 or below (Ki of 100 nM or above)) | A (A represents a pKi value≥10 (Ki≤0.1 nM)) | < 1000 nM |  | 
3 | C=CC(=O)N1CC(COc2cc(-c3cc(Cl)c(O)c(OC)c3)cn3cncc23)C1 [Example 9, 1-(3-(((6-(3-chloro-4-hydroxy-5-methoxyphenyl)imidazo[1,5-a]pyridin-8-yl)oxy)methyl)azetidin-1-yl)prop-2-en-1-one] |  |  | 0.1 to 1 nM | A (A represents a value of 3 or above) | E (E represents a pKi value of 7 or below (Ki of 100 nM or above)) | 31.6 to 200 nM | A (A represents a value below 5×10^−6 cm/sec) |  | E (E represents a pKi value of 7 or below (Ki of 100 nM or above)) | E (E represents a pKi value of 7 or below (Ki of 100 nM or above)) |  | < 1000 nM |  | 
4 | C=CC(=O)N1C[C@H](Nc2ncnc3[nH]ccc23)CC[C@@H]1C [PF-06651600, 2-propen-1-one, 1-[(2S,5R)-2-methyl-5-(7H-pyrrolo[2,3-d]pyrimidin-4-ylamino)-1-piperidinyl], reference compound] |  |  |  |  |  |  |  |  |  |  |  |  | 25 | 2.8
5 | C=CC(=O)N1CC[C@@H](Oc2cc(-c3ccc(O)cc3)cn3cncc23)C[C@H]1C [Example 15, 1-((2R,4R)-4-((6-(4-hydroxyphenyl)imidazo[1,5-a]pyridin-8-yl)oxy)-2-methylpiperidin-1-yl)prop-2-en-1-one] |  | 10 to 100 nM |  | A (A represents a value of 3 or above) | E (E represents a pKi value of 7 or below (Ki of 100 nM or above)) | ≤ 31.6 nM |  | > 30 | E (E represents a pKi value of 7 or below (Ki of 100 nM or above)) |  | A (A represents a pKi value≥10 (Ki≤0.1 nM)) | < 1000 nM |  | 
6 | C=CC(=O)N1CCC(Oc2cc(-c3ccc(O)cc3)cn3cncc23)CC1 [Example 30] |  |  |  | A (A represents a value of 3 or above) | E (E represents a pKi value of 7 or below (Ki of 100 nM or above)) | 31.6 to 200 nM | C (C represents a value between 10×10^−6 and 25×10^−6 cm/sec) | > 8 | E (E represents a pKi value of 7 or below (Ki of 100 nM or above)) | E (E represents a pKi value of 7 or below (Ki of 100 nM or above)) | A (A represents a pKi value≥10 (Ki≤0.1 nM)) |  |  | 
7 | CCc1cc(O)c(F)cc1-c1cc(OCC2CN(C(=O)/C=C/CN(C)C)C2)c2cncn2c1 [Example 24] |  |  |  | A (A represents a value of 3 or above) | E (E represents a pKi value of 7 or below (Ki of 100 nM or above)) | 31.6 to 200 nM | A (A represents a value below 5×10^−6 cm/sec) | > 200 | E (E represents a pKi value of 7 or below (Ki of 100 nM or above)) | E (E represents a pKi value of 7 or below (Ki of 100 nM or above)) | A (A represents a pKi value≥10 (Ki≤0.1 nM)) | < 1000 nM |  | 
8 | C=CC(=O)N1CC(COc2cc(-c3ccc(O)c(C)c3)cn3cncc23)C1 [Example 34] |  |  | 0.1 to 1 nM | A (A represents a value of 3 or above) | E (E represents a pKi value of 7 or below (Ki of 100 nM or above)) | 31.6 to 200 nM | B (B represents a value between 5×10^−6 and 10×10^−6 cm/sec) |  | E (E represents a pKi value of 7 or below (Ki of 100 nM or above)) | E (E represents a pKi value of 7 or below (Ki of 100 nM or above)) |  | < 1000 nM |  | 
